Patent publication US12077503B2, “Substituted cyclic amides and their use as herbicides” (FMC CORPORATION, priority 2015, dated 2024)

Tests used:
Assay type in all cases: in vivo
[1] = system: ragweed (common ragweed, Ambrosia elatior); assay: Test A preemergence; conditions: Ambrosia artemisiifolia, pre-emergence, 240 h
How it was run: (§1)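 Compounds were formulated in a non-phytotoxic solvent mixture with surfactant and applied as a preemergence directed soil spray after seeding, or sprayed postemergence over plants 2 to 10 cm tall at the one- to two-leaf stage. Evaluation after about 10 d compared treated with untreated controls, using a scale from 0 (no effect) to 100 (complete control).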

[2] = system: ryegrass, Italian (Italian ryegrass, Lolium multiflorum); assay: Test A preemergence; conditions: Lolium multiflorum, pre-emergence, 240 h
How it was run: as §1

[3] = system: barnyardgrass (Echinochloa crus-galli); assay: Test A preemergence; conditions: Echinochloa crus-galli, pre-emergence, 240 h
How it was run: as §1

[4] = system: giant foxtail (Setaria faberii); assay: Test A preemergence; conditions: Setaria faberi, pre-emergence, 240 h
How it was run: as §1

[5] = system: Kochia (Kochia scoparia); assay: Test A preemergence; conditions: Bassia scoparia, pre-emergence, 240 h
How it was run: as §1

[6] = system: pigweed (Amaranthus retroflexus); assay: Test A preemergence; conditions: Amaranthus retroflexus, pre-emergence, 240 h
[7] = system: ragweed (common ragweed, Ambrosia elatior); assay: Test A postemergence; conditions: Ambrosia artemisiifolia, post-emergence, 240 h, 125 g ai/ha, postemergence; visual injury on 0 to 100 scale (0 no effect, 100 complete control), approx. 10 d; read-out: Ragweed plant response rating
How it was run: as §1

[8] = system: ryegrass, Italian (Italian ryegrass, Lolium multiflorum); assay: Test A postemergence; conditions: Lolium multiflorum, post-emergence, 240 h, 125 g ai/ha, postemergence; visual injury on 0 to 100 scale (0 no effect, 100 complete control), approx. 10 d; read-out: Ryegrass, Italian plant response rating
How it was run: as §1

[9] = system: barnyardgrass (Echinochloa crus-galli); assay: Test A postemergence; conditions: Echinochloa crus-galli, post-emergence, 240 h, postemergence, approx. 10 d
How it was run: as §1

[10] = system: giant foxtail (Setaria faberii); assay: Test A postemergence; conditions: Setaria faberi, post-emergence, 240 h, postemergence, approx. 10 d
How it was run: as §1

[11] = system: wheat (Triticum aestivum); assay: Test A postemergence; conditions: Triticum aestivum, post-emergence, 240 h, 125 g ai/ha, postemergence; visual injury on 0 to 100 scale (0 no effect, 100 complete control), approx. 10 d; read-out: Wheat plant response rating
How it was run: as §1

[12] = system: Kochia (Kochia scoparia); assay: Test A postemergence; conditions: Bassia scoparia, post-emergence, 240 h, postemergence, approx. 10 d
How it was run: as §1

[13] = system: Galium (catchweed bedstraw, Galium aparine); assay: Test A postemergence; conditions: Galium, post-emergence, 240 h, postemergence, approx. 10 d
How it was run: as §1

[14] = system: pigweed (Amaranthus retroflexus); assay: Test A postemergence; conditions: Amaranthus retroflexus, post-emergence, 240 h, 125 g ai/ha, postemergence; visual injury on 0 to 100 scale (0 no effect, 100 complete control), approx. 10 d; read-out: Pigweed plant response rating
How it was run: as §1

[15] = system: corn (Zea mays); assay: Test A postemergence; conditions: Zea mays, post-emergence, 240 h, postemergence, approx. 10 d
How it was run: as §1

[16] = system: blackgrass (Alopecurus myosuroides); assay: Test A postemergence; conditions: Alopecurus myosuroides, post-emergence, 240 h, postemergence, approx. 10 d
How it was run: as §1

O=C1NCC(c2ccccc2OC(F)(F)C(F)F)C1C(=O)Nc1cccc(F)c1F (stereo not shown) [Compound 1054]
0%: pest or weed control at 125 g/ha ([1]; 125 g ai/ha, Preemergence, visual injury rating after approximately 10 d, read-out: Ragweed plant response rating (0 to 100 scale, 0 is no effect, 100 is complete control)) | pest or weed control at 500 g/ha ([1]; 500 g ai/ha, preemergence, visual injury rating about 10 d after treatment, 0 to 100 scale (0 no effect, 100 complete control), read-out: Ragweed plant response rating) | pest or weed control at 125 g/ha ([2]; 125 g ai/ha, Preemergence, visual injury rating after approximately 10 d, read-out: Ryegrass, Italian plant response rating (0 to 100 scale, 0 is no effect, 100 is complete control)) | pest or weed control at 500 g/ha ([2]; 500 g ai/ha, preemergence, visual injury rating about 10 d after treatment, 0 to 100 scale (0 no effect, 100 complete control), read-out: Ryegrass, Italian plant response rating) | pest or weed control at 125 g/ha ([3]; 125 g ai/ha, Preemergence, visual injury rating after approximately 10 d, read-out: Barnyardgrass plant response rating (0 to 100 scale, 0 is no effect, 100 is complete control)) | pest or weed control at 500 g/ha ([3]; 500 g ai/ha, preemergence, visual injury rating about 10 d after treatment, 0 to 100 scale (0 no effect, 100 complete control), read-out: Barnyardgrass plant response rating) | pest or weed control at 125 g/ha ([4]; 125 g ai/ha, Preemergence, visual injury rating after approximately 10 d, read-out: Foxtail, Giant plant response rating (0 to 100 scale, 0 is no effect, 100 is complete control)) | pest or weed control at 500 g/ha ([4]; 500 g ai/ha, preemergence, visual injury rating about 10 d after treatment, 0 to 100 scale (0 no effect, 100 complete control), read-out: Foxtail, Giant plant response rating) | pest or weed control at 125 g/ha ([5]; 125 g ai/ha, Preemergence, visual injury rating after approximately 10 d, read-out: Kochia plant response rating (0 to 100 scale, 0 is no effect, 100 is complete control)) | pest or weed control at 500 g/ha ([5]; 500 g ai/ha, preemergence, visual injury rating about 10 d after treatment, 0 to 100 scale (0 no effect, 100 complete control), read-out: Kochia plant response rating) | pest or weed control at 125 g/ha ([6]; 125 g ai/ha, Preemergence, visual injury rating after approximately 10 d, read-out: Pigweed plant response rating (0 to 100 scale, 0 is no effect, 100 is complete control)) | pest or weed control at 500 g/ha ([6]; 500 g ai/ha, preemergence, visual injury rating about 10 d after treatment, 0 to 100 scale (0 no effect, 100 complete control), read-out: Pigweed plant response rating) | pest or weed control at 125 g/ha [7] | pest or weed control at 125 g/ha [8] | pest or weed control at 125 g/ha ([9]; 125 g ai/ha, visual injury on 0 to 100 scale (0 no effect, 100 complete control), read-out: Barnyardgrass plant response rating) | pest or weed control at 500 g/ha ([9]; 500 g ai/ha, visual injury, 0 to 100 scale (0 no effect, 100 complete control), read-out: Plant response rating, Barnyardgrass) | pest or weed control at 125 g/ha ([10]; 125 g ai/ha, visual injury on 0 to 100 scale (0 no effect, 100 complete control), read-out: Foxtail, Giant plant response rating) | pest or weed control at 500 g/ha ([10]; 500 g ai/ha, visual injury, 0 to 100 scale (0 no effect, 100 complete control), read-out: Plant response rating, Foxtail, Giant) | plant injury at 125 g/ha [11] | pest or weed control at 125 g/ha ([12]; 125 g ai/ha, visual injury on 0 to 100 scale (0 no effect, 100 complete control), read-out: Kochia plant response rating) | pest or weed control at 500 g/ha ([12]; 500 g ai/ha, visual injury, 0 to 100 scale (0 no effect, 100 complete control), read-out: Plant response rating, Kochia) | pest or weed control at 125 g/ha ([13]; 125 g ai/ha, visual injury on 0 to 100 scale (0 no effect, 100 complete control), read-out: Galium plant response rating) | pest or weed control at 500 g/ha ([13]; 500 g ai/ha, visual injury, 0 to 100 scale (0 no effect, 100 complete control), read-out: Plant response rating, Galium) | pest or weed control at 125 g/ha [14] | plant injury at 125 g/ha ([15]; 125 g ai/ha, visual injury on 0 to 100 scale (0 no effect, 100 complete control), read-out: Corn plant response rating) | Corn plant response rating (crop injury, 0 = no effect, 100 = complete kill) at 500 g/ha ([15]; 500 g ai/ha, visual injury, 0 to 100 scale (0 no effect, 100 complete control)) | pest or weed control at 125 g/ha ([16]; 125 g ai/ha, visual injury on 0 to 100 scale (0 no effect, 100 complete control), read-out: Blackgrass plant response rating) | pest or weed control at 500 g/ha ([16]; 500 g ai/ha, visual injury, 0 to 100 scale (0 no effect, 100 complete control), read-out: Plant response rating, Blackgrass)
